Laboratory results reported in ChEMBL document CHEMBL1201862, “PubChem BioAssay data set” (2004).
Active and inactive are the calls of the source.

Columns and labels:
[1] = molecular target: T1, High affinity choline transporter 1 (Homo sapiens, UniProt Q9GZV3); assay: human choline transporter blockers, potency – cell-based, 5-point CRC, membrane potential dye, dose response (AID 504840); format: functional
T1 sequence (Q9GZV3 whole entry): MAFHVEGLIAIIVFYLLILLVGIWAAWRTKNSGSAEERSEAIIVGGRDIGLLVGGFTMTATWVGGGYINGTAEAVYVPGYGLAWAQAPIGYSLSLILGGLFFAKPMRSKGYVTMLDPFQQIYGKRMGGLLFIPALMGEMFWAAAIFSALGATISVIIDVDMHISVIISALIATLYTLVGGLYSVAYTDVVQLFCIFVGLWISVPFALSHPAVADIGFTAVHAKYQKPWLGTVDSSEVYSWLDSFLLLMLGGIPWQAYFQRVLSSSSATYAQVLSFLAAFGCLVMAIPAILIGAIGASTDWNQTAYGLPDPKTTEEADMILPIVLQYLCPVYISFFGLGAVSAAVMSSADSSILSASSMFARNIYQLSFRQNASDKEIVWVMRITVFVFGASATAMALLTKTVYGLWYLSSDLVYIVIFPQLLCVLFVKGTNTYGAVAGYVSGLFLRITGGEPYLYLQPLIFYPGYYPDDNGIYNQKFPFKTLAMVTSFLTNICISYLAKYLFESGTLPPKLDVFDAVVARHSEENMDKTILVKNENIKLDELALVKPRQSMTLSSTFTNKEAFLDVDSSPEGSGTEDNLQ

[2] = cells; format: functional
[3] = molecular target: T2, Calpain-2 catalytic subunit (Sus scrofa, UniProt P43367); assay: m-calpain protease blockers, concentration series – biochemical, fluorogenic peptide substrate, dose response (AID 1420); format: functional
T2 sequence (P43367 whole entry): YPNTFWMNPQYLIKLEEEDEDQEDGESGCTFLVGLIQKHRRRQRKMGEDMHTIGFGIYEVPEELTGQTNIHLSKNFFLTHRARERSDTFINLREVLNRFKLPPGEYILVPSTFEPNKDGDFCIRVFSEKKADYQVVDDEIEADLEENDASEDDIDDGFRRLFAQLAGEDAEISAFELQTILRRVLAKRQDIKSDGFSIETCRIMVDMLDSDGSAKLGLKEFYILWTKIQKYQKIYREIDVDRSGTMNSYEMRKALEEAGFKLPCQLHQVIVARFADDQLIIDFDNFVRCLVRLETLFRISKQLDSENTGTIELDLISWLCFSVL

[4] = NIH3T3 cell viability loss – ATP luminescence, mouse fibroblasts, counter-screen, dose response (AID 2010); format: functional, cell-based;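 note: cells exposed to compound for about 90 hours before reading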
[5] = Trypanosoma cruzi growth suppression in host cells – NIH3T3 host cells, beta-gal luminescence, confirmation (AID 2044); format: functional, cell-based;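 note: intracellular parasites grown in NIH/3T3 mouse fibroblasts as host cells; luminescent beta-galactosidase reporter signal from transgenic T. cruzi replicating inside host cells; inhibitors lower the luminescence signal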
[6] = fluconazole-exposed Candida albicans growth modulators – fluorescence, retest, confirmation (AID 2467); format: functional, cell-based
[7] = NIH-3T3 fibroblast cytotoxicity, dose response, cytotoxicity control, cell-based, fluorescence, Alamar Blue, secondary assay (AID 2327); format: functional;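 note: NIH-3T3 mouse fibroblasts cultured with fluconazole at 8 µg/mL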
[8] = molecular target: FAD-linked sulfhydryl oxidase ALR (Homo sapiens, UniProt P55789); assay: ALR-catalysed DTT oxidation blockers – biochemical, H2O2 detection, luminescence, cherry-pick, dose response (AID 493248)
[9] = molecular target: T3, Corticotropin-releasing factor receptor 2/Corticotropin-releasing factor-binding protein (Homo sapiens, UniProt P24387+Q13324); assay: Dose Response confirmation of uHTS hits for small molecule antagonists of the CRF-binding protein and CRF-R2 receptor complex.; format: functional; conditions: read-out: IC50_Mean
T3 sequence (Q13324 whole entry): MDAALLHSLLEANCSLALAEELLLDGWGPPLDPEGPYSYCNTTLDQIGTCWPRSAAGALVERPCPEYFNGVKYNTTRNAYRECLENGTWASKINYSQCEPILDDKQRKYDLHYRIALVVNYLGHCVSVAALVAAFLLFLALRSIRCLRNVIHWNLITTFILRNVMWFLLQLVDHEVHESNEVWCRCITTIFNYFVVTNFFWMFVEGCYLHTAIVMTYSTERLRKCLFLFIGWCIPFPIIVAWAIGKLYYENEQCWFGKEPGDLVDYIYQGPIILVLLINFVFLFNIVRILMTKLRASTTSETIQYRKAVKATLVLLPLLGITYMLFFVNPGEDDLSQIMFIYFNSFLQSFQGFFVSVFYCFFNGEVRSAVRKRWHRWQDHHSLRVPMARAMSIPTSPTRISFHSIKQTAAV
T3 sequence (P24387 whole entry): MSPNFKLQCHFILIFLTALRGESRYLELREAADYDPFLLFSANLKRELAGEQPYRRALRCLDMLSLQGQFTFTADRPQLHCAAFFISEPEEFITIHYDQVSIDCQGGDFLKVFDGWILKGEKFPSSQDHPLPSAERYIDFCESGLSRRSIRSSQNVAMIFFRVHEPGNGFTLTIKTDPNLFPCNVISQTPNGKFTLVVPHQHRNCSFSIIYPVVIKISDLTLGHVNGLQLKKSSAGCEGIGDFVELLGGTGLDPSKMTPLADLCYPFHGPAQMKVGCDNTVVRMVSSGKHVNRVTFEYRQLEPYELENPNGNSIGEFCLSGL

[10] = molecular target: T3, Corticotropin-releasing factor receptor 2/Corticotropin-releasing factor-binding protein; assay: activators of CRF receptor 2 with binding protein – uHTS hits, confirmation (AID 602473); format: functional; conditions: read-out: EC50_Mean
[11] = system: HEK293; assay: EBV LMP1 TES2 canonical NF-kB signalling blockers – cell-based, HEK293, luciferase, cherry-pick, dose response (AID 588343); format: functional, Homo sapiens; conditions: Homo sapiens, HEK293
[12] = DRD fibroblast viability loss – cell-based, non-viral oncogenic, luminescence, dose response (AID 1934); format: functional; conditions: Homo sapiens
[13] = system: BJ; assay: BJ-TERT-LT-ST fibroblast viability loss – cell-based, RAS-independent, luminescence, dose response (AID 1935); format: functional; conditions: Homo sapiens;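 note: BJ fibroblasts immortalized with TERT plus LT and ST oncogenes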
[14] = system: BJ; assay: BJ-TERT fibroblast viability loss – cell-based, RAS-independent, luminescence, dose response (AID 1933); format: functional; conditions: Homo sapiens
[15] = system: BJ; assay: cells; format: functional, cell-based; conditions: Homo sapiens
[16] = molecular target: Luciferin 4-monooxygenase (Photinus pyralis, UniProt P08659); assay: inhibition of purified Photinus pyralis luciferase – biochemical, luminescence, dose response (AID 1891)
[17] = Luminescence Cell-Based Dose Confirmation HTS to Identify Inhibitors of Platelet Dense Granule Release. [Related pubchem assays: 1663 (Primary HTS), 1678 (Summary of Project)]; format: functional
[18] = molecular target: T4, Heat shock factor protein 1 (Mus musculus, UniProt P38532); assay: enhancement of HSF1-driven luciferase signal – cell-based, NIH3T3, luminescence, dose retest, confirmation (AID 435004); format: functional;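 note: stress induced by proteasome inhibitor MG132 added 30 min after compound; luciferase reporter driven by HSF1 response element in NIH3T3 cells; actives raise luminescence as potentiators of the MG132 stress response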
T4 sequence (P38532 whole entry): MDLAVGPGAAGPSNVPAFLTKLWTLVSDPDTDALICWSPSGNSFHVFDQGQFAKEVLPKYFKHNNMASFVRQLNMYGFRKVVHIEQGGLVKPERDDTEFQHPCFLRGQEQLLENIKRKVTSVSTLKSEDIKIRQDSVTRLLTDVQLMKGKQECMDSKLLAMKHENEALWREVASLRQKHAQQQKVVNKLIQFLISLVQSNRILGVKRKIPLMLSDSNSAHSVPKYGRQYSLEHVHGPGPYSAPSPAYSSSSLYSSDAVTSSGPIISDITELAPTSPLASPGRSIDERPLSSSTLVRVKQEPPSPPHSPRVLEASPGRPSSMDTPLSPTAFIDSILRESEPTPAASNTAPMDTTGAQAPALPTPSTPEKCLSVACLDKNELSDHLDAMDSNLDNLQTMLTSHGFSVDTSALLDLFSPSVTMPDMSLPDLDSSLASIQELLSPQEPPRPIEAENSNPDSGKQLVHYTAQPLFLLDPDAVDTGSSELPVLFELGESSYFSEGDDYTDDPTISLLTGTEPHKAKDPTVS

[19] = molecular target: T5, Rac GTPase-activating protein 1 (Homo sapiens, UniProt Q9H0H5); assay: blockers of MgcRacGAP-driven Rac1 GTP hydrolysis – biochemical, ADP Hunter fluorescence, primary and confirmatory, confirmation (AID 624330); format: functional
T5 sequence (Q9H0H5 whole entry): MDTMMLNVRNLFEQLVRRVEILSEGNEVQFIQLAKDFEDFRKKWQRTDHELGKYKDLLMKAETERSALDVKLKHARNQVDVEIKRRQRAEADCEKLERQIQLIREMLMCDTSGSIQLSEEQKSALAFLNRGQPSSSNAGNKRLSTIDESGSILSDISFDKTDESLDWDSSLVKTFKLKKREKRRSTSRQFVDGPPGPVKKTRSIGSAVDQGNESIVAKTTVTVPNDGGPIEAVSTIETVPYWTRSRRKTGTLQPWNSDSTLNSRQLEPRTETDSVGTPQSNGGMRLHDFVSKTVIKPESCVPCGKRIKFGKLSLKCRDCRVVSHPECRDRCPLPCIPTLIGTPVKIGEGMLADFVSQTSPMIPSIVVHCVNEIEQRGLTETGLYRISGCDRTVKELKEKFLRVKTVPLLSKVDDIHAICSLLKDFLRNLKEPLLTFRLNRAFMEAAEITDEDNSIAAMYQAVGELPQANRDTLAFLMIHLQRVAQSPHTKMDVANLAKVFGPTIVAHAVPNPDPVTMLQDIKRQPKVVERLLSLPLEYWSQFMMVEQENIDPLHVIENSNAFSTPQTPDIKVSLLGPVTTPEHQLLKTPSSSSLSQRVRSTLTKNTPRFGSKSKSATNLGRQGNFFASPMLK

Sequence of FAD-linked sulfhydryl oxidase ALR (P55789 whole entry): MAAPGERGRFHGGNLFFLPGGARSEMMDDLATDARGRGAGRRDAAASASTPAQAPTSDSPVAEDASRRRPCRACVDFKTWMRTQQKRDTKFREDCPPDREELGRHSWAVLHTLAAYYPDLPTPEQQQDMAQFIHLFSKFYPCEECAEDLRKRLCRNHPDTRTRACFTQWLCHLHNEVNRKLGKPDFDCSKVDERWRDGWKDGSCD
Sequence of Luciferin 4-monooxygenase (P08659 whole entry): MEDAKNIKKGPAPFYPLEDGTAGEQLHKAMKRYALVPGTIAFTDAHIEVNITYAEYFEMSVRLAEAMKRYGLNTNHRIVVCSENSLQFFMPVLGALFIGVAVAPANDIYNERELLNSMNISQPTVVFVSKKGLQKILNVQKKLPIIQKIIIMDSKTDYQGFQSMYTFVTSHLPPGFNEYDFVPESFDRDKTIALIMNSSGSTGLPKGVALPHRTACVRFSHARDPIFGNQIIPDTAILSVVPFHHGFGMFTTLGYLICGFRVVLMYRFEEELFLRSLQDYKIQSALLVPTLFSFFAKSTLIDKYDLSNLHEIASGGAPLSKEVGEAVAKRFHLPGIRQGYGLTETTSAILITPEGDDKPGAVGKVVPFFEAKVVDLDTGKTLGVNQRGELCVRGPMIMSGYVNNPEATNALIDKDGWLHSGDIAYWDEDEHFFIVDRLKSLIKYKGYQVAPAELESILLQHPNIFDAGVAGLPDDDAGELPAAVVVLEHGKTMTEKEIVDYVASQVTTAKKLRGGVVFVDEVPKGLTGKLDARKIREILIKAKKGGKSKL

## CC(C)NC[C@H](O)c1ccc(O)c(O)c1
[1]
  IC50: 4.17e-05 µM (inconclusive)

## CN(CCC#N)c1ncnc2scc(-c3ccccc3)c12
[1]
  IC50: 12.3 µM (active)

## CCOc1ccc(OCC(=O)Nc2ccc(OC)cc2)cc1
[2]
  IC50: 26.4 µM (active)

## CCCCn1c(S)nnc1-c1csc2c1CCC(C)C2 (stereo not drawn)
[3]
  IC50: 18.2 µM (not active)

## CC(C)Cn1c(N)c(C(=O)COC(=O)c2cccc(Cl)c2)c(=O)n(C)c1=O
[3]
  IC50: 6.14 µM (active)

## COc1ccc(-[n+]2c(-c3ccc(Br)cc3)cn3c2SC(C)C3)cc1 (stereo not drawn)
[4]
  EC50: > 30 µM (not active)
[5]
  EC50: 0.684 µM (active)
[6]
  EC50: 2.96 µM (active)
[7]
  EC50: > 160 µM (inactive)

## CC(C)C[C@H](NC(=O)c1[nH]cnc1C(=O)NCc1ccccc1)C(=O)OC(C)(C)C
[3]
  IC50: 10.8 µM (not active)

## CCCS(=O)(=O)N1CCCC(C(=O)NCCCN(CC)c2cccc(C)c2)C1 (stereo not drawn)
[8]
  AC50: 1.48 µM (active)
[9]
  IC50: > 47.1 µM (inactive)
[10]
  EC50: > 53 µM (inactive)

## CCN1CCn2c3c(c4cc(Cl)ccc42)CCCC31 (stereo not drawn)
[1]
  IC50: 3.31 µM (active)

## CC(C)(C)CC(C)(C)N=C(S)Nc1ccc2nc(-c3ccccn3)c(-c3ccccn3)nc2c1
[1]
  IC50: 26.3 µM (active)

## Cc1cc(NC(=S)N(Cc2cccc(Br)c2)CC2CCC(C(=O)O)CC2)ccc1Cl (stereo not drawn)
[3]
  IC50: 11.3 µM (not active)

## CCN1CCn2c3c(c4cccc(C)c42)CCCC31 (stereo not drawn)
[1]
  IC50: 14.5 µM (active)

## Cc1cc2cc(CN(Cc3ccco3)S(=O)(=O)c3c(C)ccc4nsnc34)c(O)nc2cc1C
[11]
  AC50: 0.968 µM (active)

## CCOC(=O)CCCNC(=O)COC(=O)c1cc(Br)c(Br)s1
[2]
  IC50: 13.2 µM (active)

## CCCNC(=O)c1c(CSc2ccccc2)noc1C(=O)NCc1ccccc1
[3]
  IC50: 3.24 µM (not active)

## CCCCN(CCCC)C(=O)/C=C/c1cccc([N+](=O)[O-])c1
[3]
  IC50: 19.4 µM (not active)

## C=CC[C@@H]1C=C(C)C[C@H](C)C[C@H](OC)[C@H]2O[C@@](O)(C(=O)C(=O)N3CCCC[C@H]3C(=O)O[C@H](/C(C)=C/[C@@H]3CC[C@@H](O)[C@H](OC)C3)[C@H](C)[C@@H](O)CC1=O)[C@H](C)C[C@@H]2OC
[6]
  EC50: 0.035 µM (active)
[7]
  EC50: > 160 µM (inactive)

## CCN1C/C(=C/c2ccc(N3CCOCC3)cc2)C(=O)/C(=C/c2ccc(N3CCOCC3)cc2)C1
[12]
  EC50: 5.96 µM (active)
[13]
  EC50: 5.64 µM (active)
[14]
  EC50: 7.89 µM (active)
[15]
  EC50: 11 µM (inconclusive)

## CCC(NC(=O)CCc1nnc(-c2cc(C)on2)o1)C12CC3CC(CC(C3)C1)C2 (stereo not drawn)
[1]
  IC50: 14.5 µM (active)

## Cc1cc(NC(=O)CSc2nc(-c3ccco3)cc(C(F)(F)F)n2)n(-c2ccccc2)n1
[12]
  EC50: 14.9 µM (active)
[13]
  EC50: > 75 µM (not active)
[14]
  EC50: 17.6 µM (inconclusive)
[15]
  EC50: 64.5 µM (inconclusive)

## O=C1C2CCCN2c2ccc(S(=O)(=O)N3CCOCC3)cc2N1Cc1ccccc1F (stereo not drawn)
[11]
  AC50: > 350 µM (inactive)

## COc1cccc(C(=O)O/N=C(\N)c2ccccn2)c1OC
[11]
  AC50: 2.67 µM (active)

## Cc1cccc(/C=C/C(=O)c2ccc(N3CCOCC3)cc2)c1
[3]
  IC50: 15.7 µM (not active)

## O=C(NNc1cc(Cl)cc(Cl)c1)c1cccs1
[1]
  IC50: 16.2 µM (active)

## COc1ccc(/C=N/Nc2cc(OC)ncn2)cc1
[16]
  EC50: 6.11 µM (active)
[17]
  EC50: 5.24 µM (active)
[18]
  EC50: > 260 µM (inactive)
[11]
  AC50: 11.2 µM (active)

## O=C(O/N=C1\CCS(=O)(=O)c2sccc21)c1ccc(F)cc1
[3]
  IC50: < 0.4 µM (not active)

## C/C(CC(=O)Nc1ccc(N(C)C)cc1)=N\NC(=O)c1ccc([N+](=O)[O-])cc1
[8]
  AC50: 5.09 µM (active)
[19]
  IC50: 62.3 µM (active)
